From patent publication US11230526B1, “Cylcoalkenyl derivatives useful as agonists of the GPR120 and/or GPR40 receptors” (Janssen Pharmaceutica NV, priority 2018, dated 2022)

Biological target: T1, short form of the GPR120 receptor (Homo sapiens, UniProt Q5NUL3)
T1 construct: host or cells: PathHunter CHO-K1 GPR120S β-Arrestin Cell Line
Test: Human GPR120 DiscoveRx PathHunter Beta-Arrestin assay, Procedure β-arrestin B
Assay type: cell-based

T1 sequence (Q5NUL3 whole entry): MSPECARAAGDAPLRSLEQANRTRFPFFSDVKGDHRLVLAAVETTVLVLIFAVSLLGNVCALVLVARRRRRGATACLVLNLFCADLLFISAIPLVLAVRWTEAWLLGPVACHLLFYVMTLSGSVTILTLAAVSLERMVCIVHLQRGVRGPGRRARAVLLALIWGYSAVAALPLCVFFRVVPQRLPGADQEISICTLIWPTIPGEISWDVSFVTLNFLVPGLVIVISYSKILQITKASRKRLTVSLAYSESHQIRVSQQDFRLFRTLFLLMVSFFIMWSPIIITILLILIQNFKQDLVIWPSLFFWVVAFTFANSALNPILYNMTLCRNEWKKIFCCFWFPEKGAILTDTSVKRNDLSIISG
T1 sequence (P32121 whole entry partner): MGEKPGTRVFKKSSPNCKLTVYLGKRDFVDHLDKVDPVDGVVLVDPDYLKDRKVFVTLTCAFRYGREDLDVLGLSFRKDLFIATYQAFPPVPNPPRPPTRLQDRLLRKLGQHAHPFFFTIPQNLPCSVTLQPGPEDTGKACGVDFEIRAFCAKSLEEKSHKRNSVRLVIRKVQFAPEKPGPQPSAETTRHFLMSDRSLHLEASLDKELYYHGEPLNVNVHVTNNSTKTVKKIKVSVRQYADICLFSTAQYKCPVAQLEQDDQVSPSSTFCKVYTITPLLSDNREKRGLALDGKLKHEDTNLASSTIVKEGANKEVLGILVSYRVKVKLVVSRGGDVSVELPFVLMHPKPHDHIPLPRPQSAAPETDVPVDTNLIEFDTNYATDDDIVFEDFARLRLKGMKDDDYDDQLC

SMILES | EC50 [nM]
Cc1ccc(C2=C(COc3c(F)cc(CCC(=O)O)cc3F)CCC2)cc1C [Compound 84, 3-(4-((2-(3,4-dimethylphenyl)cyclopent-1-en-1-yl)methoxy)-3,5-difluorophenyl)Propanoic Acid] | 533
Cc1c(CCC(=O)O)ccc(OCC2=C(c3ccc(N(C)C)cc3)CCCC2)c1C [Compound 512, 3-[4-[[2-(4-dimethylaminophenyl)cyclohexen-1-yl]methoxy]-2,3-dimethyl-phenyl]Propanoic Acid] | 803
Cc1c(CCC(=O)O)ccc(OCC2=C(c3ccc(Cl)c(Cl)c3)CCC2)c1C [Compound 66, 3-[4-[[2-(3,4-dichlorophenyl)cyclopenten-1-yl]methoxy]-2,3-dimethyl-phenyl]Propanoic Acid] | 629
Cc1c(CCC(=O)O)ccc(OCC2=C(c3cccc(Cl)c3)CCCC2)c1C [Compound 509, 3-[4-[[2-(3-chlorophenyl)cyclohexen-1-yl]methoxy]-2,3-dimethyl-phenyl]Propanoic Acid] | 1790
Cc1c(CCC(=O)O)ccc(OCC2=C(c3ccccn3)CCC2)c1C [Compound 147, 3-[2,3-dimethyl-4-[[2-(2-pyridyl)cyclopenten-1-yl]methoxy]phenyl]Propanoic Acid] | 923
Cc1ccc(C2=C(COc3c(F)cc(CCC(=O)O)cc3F)CCC2)cc1[N+](=O)[O-] [Compound 109, 3-(3,5-difluoro-4-((2-(4-methyl-3-nitrophenyl)cyclopent-1-en-1-yl)methoxy)phenyl)Propanoic Acid] | 2460
Cc1c(CCC(=O)O)ccc(OCC2=C(c3cccs3)CCC2)c1C [Compound 77, 3-[2,3-dimethyl-4-[[2-(2-thienyl)cyclopenten-1-yl]methoxy]phenyl]Propanoic Acid] | 369
Cc1ccc(C2=C(COc3ccc(CCC(=O)O)c(F)c3F)CCC2)c(C)c1 [Compound 72, 3-(4-((2-(2,4-dimethylphenyl)cyclopent-1-en-1-yl)methoxy)-2,3-difluorophenyl)Propanoic Acid] | 648
Cc1ccc(C2=C(COc3ccc(CCC(=O)O)c(C)c3C)CCC2)cn1 [Compound 85, 3-(2,3-dimethyl-4-((2-(6-methylpyridin-3-yl)cyclopent-1-en-1-yl)methoxy)phenyl)Propanoic Acid] | 725
Cc1c(CCC(=O)O)ccc(OCC2=C(c3ccccc3)CCCC2)c1C [Compound 472, 3-[2,3-dimethyl-4-[(2-phenylcyclohexen-1-yl)methoxy]phenyl]Propanoic Acid] | 488
Cc1c(CCC(=O)O)ccc(OCC2=C(c3ccc(OC(F)(F)F)cc3)CCC2)c1C [Compound 20, 3-(2,3-dimethyl-4-((2-(4-(trifluoromethoxy)phenyl)cyclopent-1-en-1-yl)methoxy)phenyl)Propanoic Acid] | > 5000
Cc1ccc(C2=C(COc3ccc(CCC(=O)O)c(C)c3C)CCC2)cc1N [Compound 134, 3-(4-((2-(3-amino-4-methylphenyl)cyclopent-1-en-1-yl)methoxy)-2,3-dimethylphenyl)Propanoic Acid] | 740
COc1cccc(C2=C(COc3ccc(CCC(=O)O)c(C)c3C)CCC2)c1 [Compound 141, 3-[4-[[2-(3-methoxyphenyl)cyclopenten-1-yl]methoxy]-2,3-dimethyl-phenyl]Propanoic Acid] | 1230
Cc1ccc(C2=C(COc3ccc(CCC(=O)O)c(F)c3F)CCCC2)cc1F [Compound 494, 3-[2,3-difluoro-4-[[2-(3-fluoro-4-methyl-phenyl)cyclohexen-1-yl]methoxy]phenyl]Propanoic Acid] | 401
Cc1c(CCC(=O)O)ccc(OCC2=C(c3ccc(Cl)cc3)CCCC2)c1C [Compound 474, 3-[4-[[2-(4-chlorophenyl)cyclohexen-1-yl]methoxy]-2,3-dimethyl-phenyl]Propanoic Acid] | 1030
Cc1cc(OCC2=C(c3ccc(Cl)cc3)CCC2)ccc1CCC(=O)O [Compound 131, 3-[4-[[2-(4-chlorophenyl)cyclopenten-1-yl]methoxy]-2-methyl-phenyl]Propanoic Acid] | 566
O=C(O)CCc1c(F)c(F)c(OCC2=C(c3ccc(Cl)cc3)CCC2)c(F)c1F [Compound 122, 3-[4-[[2-(4-chlorophenyl)cyclopenten-1-yl]methoxy]-2,3,5,6-tetrafluoro-phenyl]Propanoic Acid] | 397
COc1cc(F)cc(C2=C(COc3ccc(CCC(=O)O)c(C)c3C)CCC2)c1 [Compound 65, 3-[4-[[2-(3-fluoro-5-methoxy-phenyl)cyclopenten-1-yl]methoxy]-2,3-dimethyl-phenyl]Propanoic Acid] | 1630
Cc1c(CCC(=O)O)ccc(OCC2=C(c3nccs3)CCC2)c1C [Compound 79, 3-[2,3-dimethyl-4-[(2-thiazol-2-ylcyclopenten-1-yl)methoxy]phenyl]Propanoic Acid] | 596

Next, values leading:

EC50 [nM] | SMILES
93 | O=C(O)CCc1ccc(OCC2=C(c3ccc(Cl)cc3)CCC2)cc1 [Compound 153, 3-[4-[[2-(4-chlorophenyl)cyclopenten-1-yl]methoxy]phenyl]Propanoic Acid]
235 | Cc1c(CCC(=O)O)ccc(OCC2=C(c3ccccc3F)CCC2)c1C [Compound 124, 3-[4-[[2-(2-fluorophenyl)cyclopenten-1-yl]methoxy]-2,3-dimethyl-phenyl]Propanoic Acid]
324 | Cc1c(CCC(=O)O)ccc(OCC2=C(c3ccc(Cl)nc3)CCC2)c1C [Compound 158, 3-(4-((2-(6-chloropyridin-3-yl)cyclopent-1-en-1-yl)methoxy)-2,3-dimethylphenyl)Propanoic Acid]
244 | Cc1c(CCC(=O)O)ccc(OCC2=C(c3ccc(Cl)cc3)CCC(F)(F)C2)c1C [Compound 468, 3-[4-[[2-(4-chlorophenyl)-5,5-difluoro-cyclohexen-1-yl]methoxy]-2,3-dimethyl-phenyl]Propanoic Acid]
139 | Cc1ccc(C2=C(COc3ccc(CCC(=O)O)c(C)c3C)CCC2)cc1F [Compound 80, 3-(4-((2-(3-fluoro-4-methylphenyl)cyclopent-1-en-1-yl)methoxy)-2,3-dimethylphenyl)Propanoic Acid]
337 | Cc1c(CCC(=O)O)ccc(OCC2=C(c3ccccc3)CCC2)c1C [Compound 23, 3-(2,3-dimethyl-4-((2-phenylcyclopent-1-en-1-yl)methoxy)phenyl)Propanoic Acid]
47 | Cc1ccc(C2=C(COc3ccc(CCC(=O)O)c(F)c3F)CCC2)cc1 [Compound 94, 3-(2,3-difluoro-4-((2-(p-tolyl)cyclopent-1-en-1-yl)methoxy)phenyl)Propanoic Acid]
281 | Cc1c(CCC(=O)O)ccc(OCC2=C(c3ccccc3Cl)CCC2)c1C [Compound 76, 3-[4-[[2-(2-chlorophenyl)cyclopenten-1-yl]methoxy]-2,3-dimethyl-phenyl]Propanoic Acid]
149 | CCc1ccc(C2=C(COc3c(F)cc(CCC(=O)O)cc3F)CCC2)cc1 [Compound 16, 3-(4-((2-(4-ethylphenyl)cyclopent-1-en-1-yl)methoxy)-3,5-difluorophenyl)Propanoic Acid]
191 | O=C(O)CCc1ccc(OCC2=C(c3ccc(Cl)cc3)CCC(F)(F)C2)c(F)c1F [Compound 503, 3-[4-[[2-(4-chlorophenyl)-5,5-difluoro-cyclohexen-1-yl]methoxy]-2,3-difluoro-phenyl]Propanoic Acid]
76 | Cc1ccc(C2=C(COc3c(F)cc(CCC(=O)O)cc3F)CCC2)cc1 [Compound 95, 3-(3,5-difluoro-4-((2-(p-tolyl)cyclopent-1-en-1-yl)methoxy)phenyl)Propanoic Acid]
359 | O=C(O)CCc1cc(F)c(OCC2=C(c3ccc(Cl)cc3)CCC2)c(F)c1 [Compound 60, 3-[4-[[2-(4-chlorophenyl)cyclopenten-1-yl]methoxy]-3,5-difluoro-phenyl]Propanoic Acid]
210 | O=C(O)CCc1cc(F)c(OCC2=C(c3ccc(Cl)cc3)CCCC2)c(F)c1 [Compound 510, 3-[4-[[2-(4-chlorophenyl)cyclohexen-1-yl]methoxy]-3,5-difluoro-phenyl]Propanoic Acid]
155 | Cc1cc(CCC(=O)O)ccc1OCC1=C(c2ccc(Cl)cc2)CCCC1 [Compound 483, 3-[4-[[2-(4-chlorophenyl)cyclohexen-1-yl]methoxy]-3-methyl-phenyl]Propanoic Acid]
63 | Cc1ccc(C2=C(COc3ccc(CCC(=O)O)c(C)c3C)CCC2)cc1 [Compound 52, 3-[2,3-dimethyl-4-[[2-(p-tolyl)cyclopenten-1-yl]methoxy]phenyl]Propanoic Acid]
275 | Cc1c(CCC(=O)O)ccc(OCC2=C(c3cccc(Cl)c3)CCC2)c1C [Compound 58, 3-[4-[[2-(3-chlorophenyl)cyclopenten-1-yl]methoxy]-2,3-dimethyl-phenyl]Propanoic Acid]
187 | O=C(O)CCc1ccc(OCC2=C(c3ccc(Cl)cc3)CCCC2)c(F)c1 [Compound 511, 3-[4-[[2-(4-chlorophenyl)cyclohexen-1-yl]methoxy]-3-fluoro-phenyl]Propanoic Acid]
352 | Cc1ccc(C2=C(COc3ccc(CCC(=O)O)c(C)c3C)CCCC2)cc1F [Compound 496, 3-[4-[[2-(3-fluoro-4-methyl-phenyl)cyclohexen-1-yl]methoxy]-2,3-dimethyl-phenyl]Propanoic Acid]
137 | O=C(O)CCc1ccc(OCC2=C(c3ccc(Cl)cc3)CCCC2)c(F)c1F [Compound 513, 3-[4-[[2-(4-chlorophenyl)cyclohexen-1-yl]methoxy]-2,3-difluoro-phenyl]Propanoic Acid]
77 | CCc1ccc(C2=C(COc3ccc(CCC(=O)O)c(C)c3C)CCC2)cc1 [Compound 27, 3-(4-((2-(4-ethylphenyl)cyclopent-1-en-1-yl)methoxy)-2,3-dimethylphenyl)Propanoic Acid]
164 | Cc1c(CCC(=O)O)ccc(OCC2=C(c3ccc(F)cc3)CCC2)c1C [Compound 4, 3-[4-[[2-(4-fluorophenyl)cyclopenten-1-yl]methoxy]-2,3-dimethyl-phenyl]Propanoic Acid]
73 | O=C(O)CCc1ccc(OCC2=C(c3ccc(Cl)cc3)CCC2)c(F)c1F [Compound 70, 3-[4-[[2-(4-chlorophenyl)cyclopenten-1-yl]methoxy]-2,3-difluoro-phenyl]Propanoic Acid]
